Data set [1] deals with T1, R15A-PP1c holophosphatase (R15A^325-636-PP1c) (Homo sapiens, UniProt O75807).
T1 construct: cDNAs encoding amino acids 325-636 of R15A and 340-698 of R15B were cloned into pMAL-c5x; made in house; host or cells: R15A: E. coli BL21-Gold (DE3) pLysS; bio-PP1c: Sf9 insect cells (baculovirus)
The experiment in a line: Holophosphatase SPR, compounds binding to reconstituted R15A-PP1c. The following applies: holophosphatase reconstituted on SA chip; 20°C; mean ± SD; read-out: KD, steady-state affinity for R15A-PP1c. The procedure:
Small molecules were stored as 50 mM stock solutions in 100% DMSO. […] If necessary the concentration range was adjusted to accurately determine the KD depending on the initial results. […] This was followed by 1 min stabilization period, to wash off any unspecific binding. […] After each dilution series, the surface was regenerated using 3 M NaCl for 90 s. […] In order to be able to correct for small variations in DMSO concentration between samples, eight solvent samples ranging from 0.06 to 8% DMSO were injected every 50th cycle. The flow cell temperature was 20°C.

Data set [2] in a line: Monitoring Raphin1 stability in cell culture media. Type of data set: physicochemical. The following applies: 10 μM, 37°C, 0-10 hr, mass spectrometry. The method, then: Raphin1, 10 μM (from a 10 mM DMSO stock), was added to 20 mL of pre-warmed water or cell culture media, in tightly-sealed 20 mL glass vials to reduce evaporation and incubated in an incubator at 37°C. 50 μL samples were taken at 0, 1, 2, 5, 7.5 and 10 hr and added to an Eppendorf tube containing 200 μL of chilled acetonitrile and internal standards. The samples were stored in a −20°C freezer until the end of the study. The samples were then analyzed by mass spectrometry using a TQ-S micro Triple Quadrupole from Waters and compared against a standard curve prepared in the same manner as the samples.

In another data set the test system is HeLa cells. Briefly: Assessment of translation rates (35S-methionine), HeLa cells. The following applies: HeLa cells. Type of data set: cell-based, human. The method, then: HeLa or MEF cells (90,000 cells/mL) were plated in 12-well plates (1 mL/well). The following day cells were treated as indicated; the medium was removed, fresh medium containing compound added and incubated at 37°C for the times indicated. The time course was performed in reverse order to facilitate labeling all samples at the same time. After the treatment the cells were labeled with 100 μCi/mL ^35S-methionine (Hartmann Analytic) for 10 min at 37°C (300 μL fresh medium containing 3 μL ^35S-methionine was added to each well). Note that cells were not starved in methionine-free media before labeling with ^35S-methionine for monitoring protein synthesis. The labeled cells were then washed twice with ice-cold PBS and lysed in 120 μL Laemmli Buffer. Lysates were transferred to 1.5 mL eppendorf tubes, boiled at 95°C for 5 min, sonicated and resolved on Bolt SDS-PAGE 4%–12% Bis-Tris gels (ThermoFisher Scientific). Gels were then stained with InstantBlue (Expedeon) and after the gels had been imaged they were transferred to a 20% ethanol, 7% acetic acid, 4% glycerol solution for 10 min. This was to prevent the gels from cracking while drying. The gels were transferred to filter paper and dried using a gel dryer. The gels were then exposed to a Storage Phosphor Screen (GE Healthcare) and analyzed by phosphorimaging using a Typhoon Imager Scanner (GE Healthcare).

The test system of data set [3] is eIF2α phosphorylation (HeLa cells). The experiment in a line: Protein analyses on immunoblots, HeLa cells. The following applies: for eIF2α phosphorylation: 0-10 h. Type of data set: cell-based, human. The procedure: (§1) HeLa or MEF cells (90,000 cells/mL) were plated in 12-well plates (1 mL/well). The following day cells were treated as indicated; the medium was removed, fresh medium containing compound added and incubated at 37°C for the times indicated. The time course was performed in reverse order to facilitate collecting all samples at the same time. At the end of treatment cells were washed two times with ice-cold PBS and lysed in 150 μL Laemmli Buffer. Lysates were transferred to 1.5 mL eppendorf tubes, boiled at 95°C for 5 min, sonicated and resolved on Bolt SDS-PAGE 4%–12% Bis-Tris gels (ThermoFisher Scientific). Proteins were transferred to the nitrocellulose membrane using the iBlot 2 system (ThermoFisher Scientific). Membrane was blocked in 5% skimmed milk for 30 min and then probed with primary antibodies followed by incubation with the appropriate horseradish peroxidase-conjugated secondary antibodies (Promega). Proteins were visualized using ECL Prime (GE Healthcare) and imaged in the Chemi-Smart 5000 (Vilber-Lourmat, France) or ChemiDoc Touch (BioRad). Bands were quantified using ImageJ (NIH, USA). The following primary antibodies were used: e-IF2α-P (ThermoFisher Scientific (#44-728G), 1:1,000), e-IF2α (Abcam (#ab5369), 1:1,000), tubulin (Sigma-Aldrich (#T5168), 1:4,000), BiP (BD Biosciences PharMingen (#610978), 1:1,000), ATF4 (Santa Cruz Biotechnology (#sc-200), 1:500), Ppp1r15a (Proteintech (#10449-1-AP), 1:1,000), Ppp1r15b (Proteintech (#14634-1-AP), 1:1,000) and CHOP (ABR Affinity BioReagents (#MA1-250), 1:1,000).
Background: A western blot detects proteins with antibodies after separation by electrophoresis.

For another data set, the target named is R15A (Homo sapiens, UniProt O75807). Briefly: Limited trypsin digestion of R15A. Also on record: cDNAs encoding amino acids 325-636 of R15A and 340-698 of R15B were cloned into pMAL-c5x; made in house; host or cells: E. coli BL21-Gold (DE3) pLysS. The conditions noted are these: R15 3 μM, compound 100 μM, trypsin 5 nM, 5 min, 22°C. The method, then:
Reactions were initiated by addition of 5 nM of trypsin from bovine pancreas (Sigma-Aldrich), made up in PBS, and allowed to proceed for 5 min at 22°C, with shaking at 350 rpm. […] Proteins were visualized by staining with InstantBlue Protein Stain (Expedeon).

A further data set has as its target PP1c (Homo sapiens, UniProt P36873). Briefly: PP1c catalytic activity assay (DiFMUP, EnzChek). The following applies: his-PP1c 30 nM.
For the next data set, the system named is R15a −/− cells. The experiment in a line: eIF2α phosphorylation and translation rates in R15a −/− MEF cells. The class given is cell-based, mouse. The conditions noted are these: R15a −/− cells (genetic inactivation of R15A), 10 μM. The method, then: as §1, with “The following primary antibodies were used: e-IF2α-P (ThermoFisher Scientific (#44-728G), 1:1,000), e-IF2α (Abcam (#ab5369), 1:1,000), tubulin (Sigma-Aldrich (#T5168), 1:4,000), BiP (BD Biosciences PharMingen (#610978), 1:1,000), ATF4 (Santa Cruz Biotechnology (#sc-200), 1:500), Ppp1r15a (Proteintech (#10449-1-AP), 1:1,000), Ppp1r15b (Proteintech (#14634-1-AP), 1:1,000) and CHOP (ABR Affinity BioReagents (#MA1-250), 1:1,000).” left out
HeLa or MEF cells (90,000 cells/mL) were plated in 12-well plates (1 mL/well). […] The gels were then exposed to a Storage Phosphor Screen (GE Healthcare) and analyzed by phosphorimaging using a Typhoon Imager Scanner (GE Healthcare).

Sequence of PP1c (P36873 1-322): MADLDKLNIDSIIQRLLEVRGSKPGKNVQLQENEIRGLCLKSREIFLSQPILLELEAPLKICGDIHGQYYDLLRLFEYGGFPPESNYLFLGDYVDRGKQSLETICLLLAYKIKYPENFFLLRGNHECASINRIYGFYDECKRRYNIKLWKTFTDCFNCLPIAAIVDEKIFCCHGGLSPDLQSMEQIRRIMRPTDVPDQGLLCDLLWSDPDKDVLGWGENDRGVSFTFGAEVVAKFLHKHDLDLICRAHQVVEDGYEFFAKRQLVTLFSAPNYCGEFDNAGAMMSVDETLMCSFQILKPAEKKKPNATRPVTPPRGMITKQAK
T1 sequence (O75807 325-636, stated change not applied): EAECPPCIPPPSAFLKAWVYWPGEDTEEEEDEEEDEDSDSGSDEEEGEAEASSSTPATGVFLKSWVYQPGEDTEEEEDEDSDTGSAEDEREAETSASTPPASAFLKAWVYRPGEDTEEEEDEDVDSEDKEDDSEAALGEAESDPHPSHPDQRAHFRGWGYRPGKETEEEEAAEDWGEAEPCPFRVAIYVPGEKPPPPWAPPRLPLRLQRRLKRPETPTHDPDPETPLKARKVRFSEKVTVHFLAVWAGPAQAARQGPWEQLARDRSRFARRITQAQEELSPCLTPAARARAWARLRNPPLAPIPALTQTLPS
T1 sequence (P36873 1-322 partner): as the sequence (P36873 1-322) above
Sequence of R15A (O75807 325-636, stated change not applied): as the sequence (O75807 325-636, stated change not applied) above

Take `[H]/N=C(\N)NN=Cc1cccc(Cl)c1Cl` [Raphin1, (E)-2-(2,3-dichlorobenzylidene)hydrazine-1-carboximidamide]: in data set [1], the Kd worked out at 977 nM. Further, the “Stability in cell culture media over time” value in data set [2] is “stable”. Besides, the “Protein synthesis (in words)” value is “persistent inhibition” in the data set on HeLa cells (20 μM) and “decreased” with HeLa cells (unstressed, 10 μM). Also, the “Raphin1-induced eIF2α phosphorylation and translation attenuation” value with HeLa cells (Raphin1 10 μM in the presence of the R15A inhibitor GBZ 10 μM) and in the data set on R15a −/− cells was “persisted” in each case. Besides, the “ATF4 and R15A induction” value in data set [3] (10 μM) is on record as “induced”. In data set [3] (10 μM), the “Stress marker BiP” value was “did not increase”. For the same molecule, the eIF2α phosphorylation entry in data set [3] (20 μM) is “persistent phosphorylation”; in data set [3] (unstressed, 10 μM), “rapidly and transiently increased”. At R15A, the “Protease sensitivity of R15A (limited proteolysis, conformational change)” value was “no effect”. The “Inhibition of PP1c (dephosphorylation of difluoro-4-methylumbelliferyl phosphate)” value on PP1c is “did not inhibit”.

As usually defined, the Kd is the constant that tells how readily two partners part at equilibrium.
